Assay results: patent US20210115044A1, “TRICYCLIC HETEROCYCLE COMPOUNDS USEFUL AS HIV INTEGRASE INHIBITORS” (Merck Sharp & Dohme Corp., priority 2018, published 2021)
Where two headings read alike, the source gives them in different places.

System: HIV-1 (H9/IIIB strain)
Assay: Multiple round HIV-1 infection assay in MT4-GFP cells (wild type cell assay, Viking)
Format: cell-based
Conditions: MT4-GFP cells infected with HIV-1 H9/IIIB, inhibition of reproductive ratio R0, ~48 h and ~72 h post-infection
Protocol: The antiviral activity of the Examples herein was assessed in an assay that measures the rate of replication of HIV in cell culture, and performed according to the following procedure. HIV-1 replication was monitored using MT4-gag-GFP clone D3 (hereafter designated MT4-GFP), which are MT-4 cells modified to harbor a GFP reporter gene, the expression of which is dependent on the HIV-1 expressed proteins tat and rev. Productive infection of an MT4-GFP cell with HIV-1 results in GFP expression approximately 24 h post-infection. MT4-GFP cells were maintained at 37° C./5% CO2/90% relative humidity in RPMI 1640 supplemented with 10% fetal bovine serum, 100 U/ml penicillin/streptomycin, and 400 μg/ml G418 to maintain the reporter gene. For infections, MT4-GFP cells were placed in the same medium lacking G418 and infected overnight with HIV-1 (H9/IIIB strain) virus at an approximate multiplicity of infection of 0.01 in the same incubation conditions. Cells were then washed and re-suspended in either RPMI 1640 at 2×10^5 cells/mL (0% NHS condition) or 100% normal human serum (NHS) at 2×10^5 cells/mL (100% NHS condition). Compound plates were prepared by dispensing compounds dissolved in DMSO into wells of 384 well poly-D-lysine-coated plates (0.2 μl/well) using an ECHO acoustic dispenser. Each compound was tested in a 10-point serial 3-fold dilution (typical final concentrations: 1050 nM-0.05 nM for 0% NHS condition or 42 μM-2.13 nM for 100% NHS condition). Controls included no inhibitor (DMSO only) and a combination of three antiviral agents (efavirenz, indinavir, an in-house integrase strand transfer inhibitor at final concentrations of 4 μM each). Cells were added ([…]) to compound plates and the infected cells were maintained at 37° C./5% CO2/90% relative humidity.
Infected cells were quantified at two time points, ˜48 h and ˜72 h post-infection, by counting the number of green cells in each well using an Acumen eX3 scanner. The increase in the number of green cells over ˜24 h period gives the reproductive ratio, R0, which is typically 5-15 and has been shown experimentally to be in logarithmic phase (data not shown). Inhibition of R0 is calculated for each well, and IC50s determined by non-linear 4-parameter curve fitting.

[1] = 0% NHS condition (RPMI 1640), read-out: WILD TYPE CELL ASSAY Viking IP (0% NHS)
[2] = 100% normal human serum condition, read-out: WILD TYPE CELL ASSAY Viking IP (100% NHS)
[3] = Human immunodeficiency virus 1, IIIB, 0% NHS condition (RPMI 1640), read-out: WILD TYPE CELL ASSAY Viking IP (0% NHS)

IC50 [3] [nM] | Structure (SMILES) | IC50 [1] [nM] | IC50 [2] [nM] | IC50 (Human immunodeficiency virus 1, IIIB, 100% normal human serum condition, read-out: WILD TYPE CELL ASSAY Viking IP (100% NHS)) [nM]
 | CC1N(C)C(=O)c2c(O)c(=O)c(C(=O)NCc3ccc(F)cc3F)c3n2C1(C)CC3O (single isomer, unassigned) [Compound 71] | 3.1 | 91.1 | 
 | CN1CC2(C)CC(O)c3c(C(=O)NCc4cccc(Cl)c4F)c(=O)c(O)c(n32)C1=O (single isomer, unassigned) [Compound 34] | 2.1 | 178 | 
 | CCC12CC(O)c3c(C(=O)NCc4c(F)cc(F)cc4F)c(=O)c(O)c(n31)C(=O)N(C)C2 (stereo not drawn) [Compound 48] | 2.1 | 261 | 
 | CC1N(C)C(=O)c2c(O)c(=O)c(C(=O)NCc3ccc(F)cc3F)c3n2C1(C)CC3O (single isomer, unassigned) [Compound 66] | 1.4 | 32.3 | 
 | CC1C(O)c2c(C(=O)NCc3ccc(F)cc3F)c(=O)c(O)c3n2C1(C)CN(C)C3=O (single isomer, unassigned) [Compound 79] | 4.5 | 942 | 
 | CC1N(C)C(=O)c2c(O)c(=O)c(C(=O)NCc3ccc(F)cc3F)c3n2C1(C)CC3O (single isomer, unassigned) [Compound 72] | 1.3 | 15.8 | 
 | CCC12CC(O)c3c(C(=O)NCc4cccc(Cl)c4F)c(=O)c(O)c(n31)C(=O)N(C)C2 (single isomer, unassigned) [Compound 41] | 2.2 | 30.4 | 
 | CCN1CC2(CCOC(F)F)CC(O)c3c(C(=O)NCc4ccc(F)cc4F)c(=O)c(O)c(n32)C1=O (single isomer, unassigned) [Compound 1] | 7.6 | 237 | 
 | CCN1CC2(COC)CC(O)c3c(C(=O)NCc4ccc(F)cc4F)c(=O)c(O)c(n32)C1=O (single isomer, unassigned) [Compound 58] | 2.3 | 270 | 
 | CCC12CC(O)c3c(C(=O)NCc4cccc(Cl)c4F)c(=O)c(O)c(n31)C(=O)N(C)C2 (single isomer, unassigned) [Compound 44] | 3.7 | 259 | 
2.9 | CCN1CC2(COC)CC(O)c3c(C(=O)NCc4c(F)cc(F)cc4F)c(=O)c(O)c(n32)C1=O (stereo not drawn) [Compound 63] |  | 9300 | 
2.1 | CN1CC2(C)CC(O)c3c(C(=O)NCc4cccc(Cl)c4F)c(=O)c(O)c(n32)C1=O (stereo not drawn) [Compound 35] |  |  | 116
 | CN1CC2(C)CC(O)c3c(C(=O)NCc4c(F)cc(F)cc4F)c(=O)c(O)c(n32)C1=O (stereo not drawn) [Compound 28] | 1 | 129 | 
 | CCC12CC(O)c3c(C(=O)NCc4cccc(Cl)c4F)c(=O)c(O)c(n31)C(=O)N(C)C2 (single isomer, unassigned) [Compound 42] | 2.8 | 59.3 | 
 | CC1C(O)c2c(C(=O)NCc3ccc(F)cc3F)c(=O)c(O)c3n2C1(C)CN(C)C3=O (single isomer, unassigned) [Compound 78] | 3.2 | 383 | 
 | CCN1CC2(COC)CC(O)c3c(C(=O)NCc4ccc(F)cc4F)c(=O)c(O)c(n32)C1=O (single isomer, unassigned) [Compound 60] | 7.1 | 1260 | 
 | CCC12CC(O)c3c(C(=O)NCc4c(F)ccc(Cl)c4F)c(=O)c(O)c(n31)C(=O)N(C)C2 (single isomer, unassigned) [Compound 54] | 2.8 | 29.5 | 
 | CCC12CC(O)c3c(C(=O)NCc4c(F)ccc(F)c4F)c(=O)c(O)c(n31)C(=O)N(C)C2 (single isomer, unassigned) [Compound 50] | 2.9 | 25.5 | 
1.4 | CN1CC2(C)CC(O)c3c(C(=O)NCc4c(F)cc(F)cc4F)c(=O)c(O)c(n32)C1=O (single isomer, unassigned) [Compound 25] |  | 1700 | 
 | CN1CC2(C)CC(O)c3c(C(=O)NCc4c(F)cc(F)cc4F)c(=O)c(O)c(n32)C1=O (single isomer, unassigned) [Compound 26] | 2.1 | 107 | 
 | CCN1CC2(CCOC(F)F)CC(O)c3c(C(=O)NCc4ccc(F)cc4F)c(=O)c(O)c(n32)C1=O (single isomer, unassigned) [Compound 2] | 6.3 | 94.9 | 
